What all share (assay): NCI-60 cell line screen, 48 h
Assay [1] has as its system SNB-75 CNS.
The subject of assay [2] is HOP-62 NSCLC.
Assay [3] relates to SNB-19 CNS.
Assay [4] has as its system A549 NSCLC.
Assay [5] deals with SN12C renal.
The subject of assay [6] is K-562 leukemia.
Assay [7] relates to SW-620 colon.
Assay [8] concerns NCI-H460 lung.
The test system of assay [9] is OVCAR-8 ovarian.
Assay [10] deals with A498 renal.

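In this assay, cells in 96-well plates receive the compound at five concentrations for 48 hours. Endpoints are linearly interpolated between the surrounding concentrations. GI50 = concentration required for 50% inhibition of growth. Definition used: TGI = concentration required for complete inhibition of growth.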

In the case of `O=C(NNS(=O)(=O)c1ccc(Cl)cc1Cl)c1cccnc1Nc1ccc(Cl)cc1`, the GI50 in assay [1] is 22.4 µM; in assay [2], 16.6 µM; in assay [3], 27 µM; in assay [4], 24.4 µM; in assay [5], 31.4 µM; in assay [6], 12.9 µM. In addition, the GI50 in [7] was 28.4 µM; in assay [8], 35.7 µM; in [9] it was 26.7 µM; in [10], 25 µM. Further, the TGI was 84.4 µM in assay [1]; 37.7 µM in assay [2]; > 100 µM in assay [3]; 70.1 µM in [4]; > 100 µM in assay [5]; 25.6 µM in assay [6]. The TGI was > 100 µM in assay [7], > 100 µM in assay [8], 74.9 µM in assay [9] and 47.9 µM in assay [10].

Turning to `COc1ccc(C(=O)/C=C/c2ccc(OCC#N)cc2)cc1`, the TGI was > 100 µM in assay [1]; > 100 µM in assay [2]; > 100 µM in [3]; > 100 µM in assay [4]; 39.2 µM in assay [5]; 96.6 µM in assay [6]. The TGI in assay [7] is 33.6 µM; in [8], 81.1 µM; in assay [9], > 100 µM; in [10], 96.3 µM.

On to `C[C@@H]1Cc2cc(O)ccc2[C@H]2CC[C@]3(C)/C(=C/COCCN(C)C)CC[C@H]3[C@H]12` (tested in a mixture with another compound), for which the GI50 in assay [1] was 0.235 µM; in assay [2] it was 0.285 µM; in assay [3] it was 0.364 µM; in assay [4], 0.0557 µM; in assay [5], 0.111 µM; in assay [6], 0.256 µM. Moreover, the GI50 in [7] was 0.214 µM; in assay [8] it was 0.0704 µM; in [9], 0.18 µM; in assay [10] it was 0.534 µM. The TGI turned out to be 0.755 µM in assay [1]; 0.739 µM in [2]; 1.34 µM in assay [3]; 0.193 µM in assay [4]; 0.789 µM in assay [5]; 0.985 µM in assay [6]. The TGI was 0.482 µM in [7], 0.208 µM in assay [8], 0.364 µM in assay [9] and 1.59 µM in assay [10].

Turning to `COc1cc2c(cc1F)C(c1ccccc1Cl)=Nc1c(n[nH]c1C)N2`, the GI50 was 0.189 µM in assay [1]; 1.31 µM in assay [2]; 8.69 µM in [3]; 0.938 µM in assay [4]; 1.38 µM in [5]; 0.493 µM in [6]. For the same compound, the GI50 in assay [7] is 0.486 µM; in assay [8], 0.498 µM; in assay [9], 6.29 µM; in assay [10], 2.06 µM. In addition, the TGI in assay [1] is 0.724 µM; in [2], 19.1 µM; in assay [3], 22.3 µM; in assay [4] it was 23.9 µM; in [5] it was 18.3 µM; in [6] it was > 50.4 µM. Further, the TGI came out at 20 µM in assay [7], 26.5 µM in assay [8], 30.4 µM in assay [9] and 9.97 µM in assay [10].

As to `O=C(CN1N=C(c2ccc(F)cc2)CCC1=O)Nc1nc2ccccc2s1`, the GI50 in assay [1] is 17.9 µM; in assay [3], > 96.7 µM; in [4], 13.7 µM; in [5], 15.7 µM; in assay [6], 5.32 µM; in assay [7], > 49.5 µM. The GI50 in assay [8] is > 51.5 µM; in assay [9] it was 0.788 µM; in assay [10] it was 22.8 µM. The TGI in assay [1], in assay [2], in [3], in assay [4], in assay [5] and in assay [6] was > 100 µM each time. The TGI in [7] is > 100 µM; in assay [8], > 100 µM; in assay [9], 4.33 µM; in [10], > 100 µM.

With `c1ccc2c(c1)CCc1c-2n[nH]c1-c1[nH]nc2c1CCc1ccccc1-2`, the TGI in assay [1], in [2], in assay [3], in [4], in [5] and in assay [6] was > 100 µM throughout. Further, the TGI in assay [7], in [8], in [9] and in [10] was > 100 µM in each case.

The values are drawn from PubChem BioAssay (NCI).
